# Columns and labels:
# Format in all cases: cell-based
# [1] = system: P. falciparum 3D7 (chloroquine-sensitive); assay: Anti-malarial activity, P. falciparum 3D7 culture, 72 hour, DNA content by flow cytometry; conditions: synchronized ring-stage parasites
# Procedure, shortened: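 Magnet-synchronized ring-stage parasites in RPMI 1640/Albumax II were plated at 0.5% parasitemia, 4% final hematocrit, with compound added as 2× dilutions (2.5 μM to 20 nM) for 72 h. Fixed, Triton-permeabilized cells were stained with SYTOX Green (5 μM final), and DNA content was measured by flow cytometry to derive IC50.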
# [2] = system: P. falciparum DD2 (chloroquine-resistant); assay: Anti-malarial activity, P. falciparum DD2 culture, 72 hour, DNA content by flow cytometry; conditions: synchronized ring-stage parasites
# Protocol: Numerous compounds were screened in cultures of the malaria parasite P. falciparum 3D7 (chloroquine-sensitive) and DD2 (chloroquine-resistant). The compounds were also screened for toxixcity against 3T3 cells, HepG2 cells, and in a hemolysis assay. In brief, P. falciparum parasites were cultured in RPMI 1640 (Invitrogen) supplemented with Albumax II (Invitrogen). For synchronization, schizont stage parasites were magnet purified using a SuperMACS™ II Cell Separation Unit (Miltenyi Biotech). For IC50 determinations, synchronized ring-stage parasites were plated at 0.5% parasitemia and 8% hematocrit in 96-well plates at a total volume of 50 μL. Serial dilutions of 2× concentration of the respective compound, ranging from 2.5 μM to 20 nM, were added to the wells to bring the total volume up to 100 μL and 4% hematocrit. Compounds were assayed for a 72 hour period, after which the cultures were fixed with a solution of 4% paraformaldehyde and 0.08% glutaraldhyde in PBS. The cells were then permeabilized with 0.25% Triton X-100, and SYTOX Green Nucleic Acid Stain (Invitrogen) in PBS was added to a final concentration of 5 μM. DNA content, as an indicator of parasitemia, was analyzed on an Accuri C6 Flow Cytometer with C-Sampler. IC50 curves were generated using GraphPad Prism (GraphPad Software).
# [3] = Cytotoxicity against 3T3 cells; conditions: mouse, 3T3 cells; read-out: Cytotoxicity 3T3 EC50
# [4] = Cytotoxicity against HepG2 cells; conditions: human, HepG2 cells; read-out: Cytotoxicity HepG2 EC50
# in vitro = assay: in vitro
# 3T3 cells = assay: Cytotoxicity against 3T3 cells
# HepG2 cells = assay: Cytotoxicity against HepG2 cells
# [5] = Plasmodium falciparum, 3D7, 72 h
Compound,IC50 [1],EC50 (3T3 cells),EC50 (HepG2 cells),further results
CC(C)(C)c1cc(N)c(SCCN)c(NC(=O)c2cccc(C(=O)Nc3cc(C(C)(C)C)cc(N)c3SCCN)c2)c1 [Compound 110],0.563 µM,–,–,IC50 [2]: 0.74 µM
N=C(N)NCCCOc1cc(OCCCNC(=N)N)c(-c2ccc(C(F)(F)F)cc2)cc1-c1ccc(C(F)(F)F)cc1 [Compound 144],–,–,–,IC50 ([2]; Plasmodium falciparum): 0.247 µM; EC50 [3]: 27 µM; EC50 [4]: 90 µM; EC50 (in vitro): 3 µg/mL
CN(CCCCC(=O)Nc1cc(C(C)(C)C)cc(NC(=O)c2cccc(C(=O)Nc3cc(C(C)(C)C)cc(NC(=O)CCCCN(C)c4ccccn4)c3SCCN)c2)c1SCCN)c1ccccn1 [Compound 118],0.74 µM,–,–,IC50 [2]: 1.15 µM
NCCOc1c(N)cc(C(F)(F)F)cc1NC(=O)c1cccc(C(=O)Nc2cc(C(F)(F)F)cc(N)c2OCCN)c1 [Compound 112],0.653 µM,–,–,IC50 [2]: 0.993 µM
N=C(N)NCCCCC(=O)Nc1cc(C(F)(F)F)cc(NC(=O)c2cc(C(=O)Nc3cc(C(F)(F)F)cc(NC(=O)CCCCNC(=N)N)c3SCCN)[nH]n2)c1SCCN [Compound 119],0.87 µM,–,–,IC50 [2]: 0.688 µM
CC(C)(C)c1cc(NC(=O)c2cccc(C(=O)Nc3cc(C(C)(C)C)cc(NC(=O)C(N)Cc4ccccc4)c3SCCN)c2)c(SCCN)c(NC(=O)C(N)Cc2ccccc2)c1 (stereo not drawn) [Compound 109],0.438 µM,–,–,IC50 [2]: 0.601 µM
N=C(N)NCCN1CCc2ccc(NC(=O)c3cc(C(=O)Nc4ccc5c(c4)CCN(CCNC(=N)N)CC5)ncn3)cc2CC1 [Compound 150],–,–,–,IC50 ([2]; Plasmodium falciparum): 0.53 µM; EC50 [3]: 168 µM; EC50 [4]: 157 µM; EC50 (in vitro): 197 µg/mL
NC1CCC(N2CCc3ccc(NC(=O)c4cc(C(=O)Nc5ccc6c(c5)CCN(C5CCC(N)CC5)CC6)ncn4)cc3CC2)CC1 (stereo not drawn) [Compound 148],–,–,–,IC50 ([2]; Plasmodium falciparum): 0.081 µM; EC50 [3]: > 1000 µM; EC50 [4]: > 1000 µM; EC50 (in vitro): > 1000 µg/mL
NCCSc1nc(-c2cccc(CCN)c2)cc(-c2cccc(CCN)c2)n1 [Compound 220],1.55 µM,> 1000 µM,> 1000 µM,–
N=C(N)NCCCCN1CCc2ccc(NC(=O)c3cc(C(=O)Nc4ccc5c(c4)CCN(CCCCNC(=N)N)CC5)ncn3)cc2CC1 [Compound 151],–,–,–,IC50 ([2]; Plasmodium falciparum): 0.563 µM; EC50 [3]: 469 µM; EC50 [4]: 408 µM; EC50 (in vitro): > 1000 µg/mL
NCCCSc1ccc(NC(=O)Nc2ccc(SCCCN)c(C(F)(F)F)c2)cc1C(F)(F)F [Compound 274],> 2 µM,72 µM,164 µM,–
Nc1cccc(NC(=O)c2cc(C(=O)Nc3cccc(N)n3)ncn2)n1 [Compound 189],> 2 µM,> 1000 µM,> 1000 µM,–
NCCCOc1cccc(-c2ccc(-c3cccc(OCCCN)c3)s2)c1 [Compound 241],> 2 µM,34 µM,38 µM,–
CC(=O)NCCSc1c(NC(=O)CCCCNC(=N)N)cc(Br)cc1NC(=O)c1cc(C(=O)Nc2cc(Br)cc(NC(=O)CCCCNC(=N)N)c2SCCNC(C)=O)ncn1 [Compound 169],–,–,–,"IC50 [1, 5]: 0.317 µM; IC50 ([2]; Plasmodium falciparum): 0.15 µM; EC50 (in vitro): 210 µg/mL"
NCCc1cccc(-c2cncc(-c3ccc(-c4cncc(-c5cccc(CCN)c5)c4)cc3)c2)c1 [Compound 234],0.655 µM,> 1000 µM,> 1000 µM,–
FC(F)(F)c1cc(NC2CCNCC2)ccc1Oc1ccc(Oc2ccc(NC3CCCNC3)cc2C(F)(F)F)cc1 (stereo not drawn) [Compound 165],–,–,–,"IC50 [1, 5]: 0.904 µM; IC50 ([2]; Plasmodium falciparum): 1.18 µM; EC50 (in vitro): 16 µg/mL"

Compound,IC50 [1],EC50 (3T3 cells),EC50 (HepG2 cells),further results
CC(C)(C)c1cc(NC(=O)c2cccc(C#N)c2)c(SCCN)c(NC(=O)c2cc(C(=O)Nc3cc(C(C)(C)C)cc(NC(=O)c4cccc(C#N)c4)c3SCCN)ncn2)c1 [Compound 198],0.005 µM,7 µM,30 µM,–
CCN(CC)CCN(CCN)c1c(Cl)cc(C(F)(F)F)cc1NC(=O)Nc1cc(C(F)(F)F)cc(Cl)c1N(CCN)CCN(CC)CC [Compound 124],0.32 µM,20 µM,24 µM,–
CC(=O)Nc1cc(C(C)(C)C)cc(NC(=O)c2cccc(C(=O)Nc3cc(C(C)(C)C)cc(NC(C)=O)c3SCCN)c2)c1SCCN [Compound 108],0.306 µM,–,–,IC50 [2]: 0.419 µM
O=C(Nc1ccc(N2CCNCC2)cc1)c1cccc(C(=O)Nc2ccc(N3CCNCC3)cc2)n1 [Compound 211],> 0.1 µM,> 1000 µM,> 1000 µM,–
CN(C)C1CCN(c2ccc(NC(=O)c3cc(C(=O)Nc4ccc(N5CCC(N(C)C)CC5)cc4)ncn3)cc2)CC1 [Compound 213],0.035 µM,244 µM,51 µM,–
NCCc1cccc(-c2cc(-c3ccc(-c4cc(-c5cccc(CCN)c5)ncn4)s3)ncn2)c1 [Compound 229],0.628 µM,3 µM,262 µM,–
NCCc1ccccc1-c1ccc(-c2ccccc2CCN)s1 [Compound 249],0.028 µM,7 µM,46 µM,–
NCCc1cccc(-c2ccc(-c3cccc(CCN)c3)o2)c1 [Compound 237],> 2 µM,2 µM,222 µM,–
O=C(Nc1ccc(OC2CCNCC2)cc1)c1cc(C(=O)Nc2ccc(OC3CCNCC3)cc2)ncn1 [Compound 199],0.01 µM,192 µM,353 µM,–
N=C(N)NCCc1cccc(NC(=O)c2cc(C(=O)Nc3cccc(CCNC(=N)N)c3)nc(SCCN)n2)c1 [Compound 182],0.56 µM,330 µM,345 µM,–
COc1cc(SCCN)c(C(F)(F)F)cc1NC(=O)Nc1cc(C(F)(F)F)c(SCCN)cc1OC [Compound 277],0.57 µM,31 µM,64 µM,–
COC(=O)CCSc1c(NC(=O)CCCCNC(=N)N)cc(C(F)(F)F)cc1NC(=O)c1cc(C(=O)Nc2cc(C(F)(F)F)cc(NC(=O)CCCCNC(=N)N)c2SCCC(=O)OC)ncn1 [Compound 171],–,–,–,"IC50 [1, 5]: 0.893 µM; IC50 ([2]; Plasmodium falciparum): 0.524 µM"
N=C(N)NCCCOc1cccc(-c2cncc(-c3ccc(-c4cncc(-c5cccc(OCCCNC(=N)N)c5)c4)s3)c2)c1 [Compound 227],0.65 µM,54 µM,117 µM,–
CC(C)(C)c1cc(N)c(SCCCC(=N)N)c(NC(=O)c2cccc(C(=O)Nc3cc(C(C)(C)C)cc(N)c3SCCCC(=N)N)c2)c1 [Compound 113],0.668 µM,–,–,IC50 [2]: 0.611 µM
CN(C)CCSc1ccc(NC(=O)c2cc(C(=O)Nc3ccc(SCCN(C)C)cc3)ncn2)cc1 [Compound 202],0.007 µM,632 µM,648 µM,–
N=C(N)NCCSc1ccc(NC(=O)Nc2ccc(SCCN)c(C(F)(F)F)c2)cc1C(F)(F)F [Compound 130],–,–,–,IC50 [2]: 0.976 µM

# Continued, in another order:
IC50 [1],Compound,EC50 (3T3 cells),EC50 (HepG2 cells),further results
> 0.1 µM,CC1(C)c2cc(-c3cccc(CCN)c3)ccc2-c2ccc(-c3cccc(CCN)c3)cc21 [Compound 281],2 µM,5 µM,–
0.056 µM,Nc1cc(NC(=O)c2cc(C(=O)Nc3ccc(N4CCNCC4)c(F)c3)ncn2)ccc1N1CCNCC1 [Compound 218],46 µM,233 µM,–
0.026 µM,N=C(N)N1CC[C@@H](Oc2ccc(NC(=O)c3cc(C(=O)Nc4ccc(O[C@@H]5CCN(C(=N)N)C5)c(C(F)(F)F)c4)ncn3)cc2C(F)(F)F)C1 [Compound 190],33 µM,41 µM,–
> 2 µM,NCCc1cccc(-c2ccc(-c3cccc(CCN)c3)s2)c1 [Compound 236],< 14 µM,186 µM,–
0.541 µM,Cn1c(-c2cccc(CCN)c2)cnc1-c1cccc(CCN)c1 [Compound 245],> 1000 µM,> 1000 µM,–
> 0.1 µM,Cn1c(-c2ccc(CCCN)cc2)cnc1-c1ccc(CCCN)cc1 [Compound 265],> 1000 µM,> 1000 µM,–
> 0.1 µM,CCn1c2ccc(C3=CCN(C(=N)N)CC3)cc2c2cc(C3=CCN(C(=N)N)CC3)ccc21 [Compound 287],84 µM,200 µM,–
0.005 µM,Cn1c(-c2cccc(CCNC(=N)N)c2)cnc1-c1cccc(CCNC(=N)N)c1 [Compound 246],> 1000 µM,> 1000 µM,–
> 0.1 µM,CN1CCN(c2ccc(-c3ccc(-c4ccc(N5CCN(C)CC5)cc4)s3)cc2)CC1 [Compound 260],> 1000 µM,> 1000 µM,–
> 2 µM,NCCc1cccc(-c2cnc(-c3cccc(CCN)c3)s2)c1 [Compound 242],71 µM,584 µM,–
0.08 µM,N=C(N)N1CC=C(c2ccc3sc4ccc(C5=CCN(C(=N)N)CC5)cc4c3c2)CC1 [Compound 286],83 µM,221 µM,–
0.059 µM,N=C(N)NCCCc1ccc(-c2ccc(-c3ccc(CCCNC(=N)N)cc3)s2)cc1 [Compound 266],38 µM,197 µM,–

# — US20150094294A1, “COMPOUNDS AND METHODS FOR TREATING MALARIA” (Cellceutix Corporation, priority 2012, published 2015)
